# According to paper PMC11078216, “Discovery of potent and selective activity-based probes (ABPs) for the deubiquitinating enzyme USP30” (RSC Chemical Biology, 2024):
# Target: T1, USP30 (Homo sapiens, UniProt Q70CQ3)
# T1 construct: Catalog #E-582 residues 57-517; purchased E-582
# T1 sequence (Q70CQ3 57-517): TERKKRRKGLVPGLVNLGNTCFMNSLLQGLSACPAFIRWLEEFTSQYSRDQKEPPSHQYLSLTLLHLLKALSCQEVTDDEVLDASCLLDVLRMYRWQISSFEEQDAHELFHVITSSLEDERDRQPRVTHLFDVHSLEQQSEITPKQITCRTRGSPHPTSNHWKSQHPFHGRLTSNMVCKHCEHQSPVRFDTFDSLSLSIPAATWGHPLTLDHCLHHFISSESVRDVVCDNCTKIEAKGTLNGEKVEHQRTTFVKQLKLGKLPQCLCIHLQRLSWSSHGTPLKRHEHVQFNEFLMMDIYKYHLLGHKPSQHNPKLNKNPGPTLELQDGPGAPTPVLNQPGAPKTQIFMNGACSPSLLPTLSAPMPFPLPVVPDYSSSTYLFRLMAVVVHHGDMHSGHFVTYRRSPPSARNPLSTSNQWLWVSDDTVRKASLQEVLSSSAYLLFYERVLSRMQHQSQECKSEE
# Assay: USP30 FP kinetic analysis (kobs/I, Ki, kinact) using Ub-Lys(TAMRA)-Gly
# Assay type: biochemical
# Settings: for kinact/KI: read-out: kobs/I
# Procedure: We further characterised inhibition kinetics for ABPs in a FP assay using Ub-Lys(TAMRA)-Gly. kobs/I, Ki and kinact determination assay was performed using 30 nM USP30 and 100 nM Ub-Lys(TAMRA)-Gly as described in ESI, ^† Section S3.1.c. FP was monitored kinetically over an hour after addition of the substrate, and response curves fitted to y = (vi/kobs) (1 − exp(−kobsx)) to calculate kobs/I, 5680 (95% Cl = 4723–6638) M^−1 s^−1 for IMP-2587, and 3021 (95% Cl = 2350–3693) M^−1 s^−1 for IMP-2586 (Fig. S1, ESI ^†).
# 4. Biochemical and biological methods and proteomics
# 1) Biochemical USP30 fluorescence polarisation (FP) assay using Ub-Lys(TAMRA)-Gly […]
# USP30 was diluted in reaction buffer A (40 mM Tris, pH 7.5, 0.005% Tween 20, 0.5 mg/ml BSA, 5 mM betamercaptoethanol) and 10 μL of diluted 10.5 nM […]
# b. USP30 biochemical kinetic assay
# Reactions were performed in triplicate in black 384 well plates (small volume, Greiner 784076) in a final reaction volume of 20 ul. […]
# Pherastar Plus (BMG Labtech). l Excitation 540 nm; l Emission 590 nm.
# Inhibition kinetics for compound ABP 2 and ABP 4 were determined by preparing compound dilution plates at 21× final concentration in 50% DMSO in water. 50% DMSO (1 μL) or diluted compound (1 μL) was added to the reaction plate. Substrate Ub-TAMRA (200 nM, 10 μL) (final concentration: 100 nM) was prepared in buffer A described in section 3.1.a and added to the reaction plate. Reactions were initiated by the addition of USP30 (21 nM, 10 μL) (final concentration 10 nM), and fluorescence polarisation read immediately for 1 h in every 2 min. Analysis was performed in GraphPad Prism.
# Kinetic progress curves were fitted to equation y = (vi/kobs) (1 − exp(−kobs*x)) to determine the kobs value (for first 30 min data). The kobs value was then plotted against the inhibitor concentration to […]
# [1] = 30 nM USP30, 100 nM Ub-Lys(TAMRA)-Gly, nonlinear regression to kobs = kinact/(1 + (Ki/x))
SMILES,Ki [1],kinact/KI,KI (inactivation) [1]
N#CN1CC[C@@H](NC(=O)c2cc(-c3ccccc3Oc3ccc(N=[N+]=[N-])cc3)n[nH]2)C1 [IMP-2586],5.6 nM,3020 M⁻¹ s⁻¹,
C#Cc1cccc(-c2cc(NC(=O)CC3CCN(C#N)C3)on2)c1 (centres unmarked) [IMP-2587],42.8 nM,5680 M⁻¹ s⁻¹,42.7 nM
